Read-outs that look alike come from different tables or passages of the source.
Legend:
[1] = molecular target: T1, rat histamine H3 receptor (Rattus norvegicus, UniProt Q9QYN8); experiment: Rat H3 radioligand binding ([3H]-N-alpha-methylhistamine, SPA)
T1 construct: encoding the entire 445-amino-acid rat histamine H3 receptor; expressed in transfected cells; membrane preparation
Outline: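 SPA-bead binding assay using [3H]-N-alpha-methylhistamine (approximately 1 nM final) with test compounds from 0.01 nM to 30 μM. Rat H3 receptor membranes came from stably transfected CHO-A3 cells; incubation ran 4 h at room temperature, in the dark, in Tris pH 7.4 buffer with MgCl2 and BSA. Clobenpropit (10 μM) gave non-specific binding.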

human H3 receptor = molecular target: T2, human H3 receptor (Homo sapiens, UniProt Q9Y5N1); experiment: Human H3 radioligand binding ([3H]-N-alpha-methylhistamine, SPA)
T2 construct: expressed in transfected cells
T2 sequence (Q9Y5N1 whole entry): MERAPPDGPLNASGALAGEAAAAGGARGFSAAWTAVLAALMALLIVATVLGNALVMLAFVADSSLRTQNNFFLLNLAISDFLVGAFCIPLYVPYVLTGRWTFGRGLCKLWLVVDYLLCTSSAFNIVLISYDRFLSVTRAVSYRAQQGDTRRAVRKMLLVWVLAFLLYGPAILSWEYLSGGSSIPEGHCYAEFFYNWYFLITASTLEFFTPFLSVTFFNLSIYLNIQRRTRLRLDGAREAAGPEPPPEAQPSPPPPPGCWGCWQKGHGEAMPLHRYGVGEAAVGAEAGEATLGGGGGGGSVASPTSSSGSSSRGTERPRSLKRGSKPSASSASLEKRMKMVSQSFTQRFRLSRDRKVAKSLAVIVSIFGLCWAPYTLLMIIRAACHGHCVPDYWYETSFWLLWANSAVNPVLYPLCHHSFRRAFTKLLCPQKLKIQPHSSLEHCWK
Outline: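 Compounds (0.01 nM-30 μM) competed with approximately 1 nM [3H]-N-alpha-methylhistamine for human H3 receptor in membranes of stably transfected CHO cells, 10 μg protein per well, in Tris-HCl pH 7.4/MgCl2/BSA buffer for 4 h at room temperature. Bound radioligand measured by scintillation proximity; 10 μM clobenpropit gave non-specific binding.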

[2] = Rat H3 binding, Table B, Examples 136-362, read-out: rat H3 binding Ki
[3] = Human H3 binding, Table B, Examples 136-362, read-out: hum H3 binding Ki
[4] = Table C, rat H3 binding, read-out: Rat H3 Ki
[5] = Table C, human H3 binding, read-out: Human H3 Ki
[6] = rat H3 binding, Table D, read-out: Rat H3 Ki
[7] = human H3 binding, Table D, read-out: Human H3 Ki

T1 sequence (Q9QYN8 whole entry): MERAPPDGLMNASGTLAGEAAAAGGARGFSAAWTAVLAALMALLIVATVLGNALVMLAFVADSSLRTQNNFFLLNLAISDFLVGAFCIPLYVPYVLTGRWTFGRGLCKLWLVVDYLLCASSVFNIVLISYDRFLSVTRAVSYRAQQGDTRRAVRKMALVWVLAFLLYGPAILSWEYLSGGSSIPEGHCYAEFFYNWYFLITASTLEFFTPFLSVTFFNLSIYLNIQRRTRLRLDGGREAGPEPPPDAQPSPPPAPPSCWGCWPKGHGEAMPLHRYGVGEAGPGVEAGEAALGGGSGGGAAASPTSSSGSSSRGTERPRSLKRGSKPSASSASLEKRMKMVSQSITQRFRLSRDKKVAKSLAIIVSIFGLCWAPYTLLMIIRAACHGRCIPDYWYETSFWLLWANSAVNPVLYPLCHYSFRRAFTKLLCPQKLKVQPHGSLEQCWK

CN(C)c1ncc(-c2ccc3c(c2)COC2(CCN(C4CCC4)CC2)O3)cn1 [Example 42]
Ki ([1]; Table A, rat H3 binding, read-out: Rat Ki): < 200 nM
melting point: 204.8 to 205.8 °C
Ki (human H3 receptor; Table A, human H3 binding, read-out: Human Ki): < 200 nM

c1cc2c(cc1C1CCOCC1)COC1(CCN(C3CCC3)CC1)O2 [Example 479]
Ki ([1]; read-out: Rat H3 kI): < 200 nM
melting point: 249 to 251 °C
Ki (human H3 receptor; read-out: Human H3 Ki): < 200 nM

O=C1N(CCO)CCN1c1ccc2c(c1)COC1(CCN(C3CCC3)CC1)O2 [Example 146]
Ki [1, 2]: < 200 nM
melting point: 152 to 155 °C
Ki (human H3 receptor; [3]): < 200 nM

O=C(C1CCN(c2ccc3c(c2)CCC2(CCN(C4CCC4)CC2)O3)CC1)N1CCCC1 [Example 418]
Ki [1, 4]: < 200 nM
melting point: 290 to 292 °C
Ki (human H3 receptor; [5]): < 200 nM

Cc1c(-c2cc[nH]c(=O)c2)ccc2c1COC1(CCN(C3CCC3)CC1)O2 [Example 558]
Ki ([1]; read-out: Rat H3 kI): < 200 nM
melting point: > 300 °C
Ki (human H3 receptor; read-out: Human H3 Ki): < 200 nM

CN(C)C(=O)N1CCN(c2ccc3c(c2)COC2(CCN(C4CCC4)CC2)O3)CC1 [Example 287]
Ki [1, 2]: < 200 nM
melting point: 153 to 155 °C
Ki (human H3 receptor; [3]): < 200 nM

COC1CCN(C(=O)c2ccc(-c3ccc4c(c3)COC3(CCN(C5CCC5)CC3)O4)cc2)CC1 [Example 263]
Ki [1, 2]: < 200 nM
melting point: 94 to 96 °C
Ki (human H3 receptor; [3]): < 200 nM

O=C(NCCO)c1ccc(-c2ccc3c(c2)CCC2(CCN(C4CCC4)CC2)O3)cc1F [Example 147]
Ki [1, 2]: < 200 nM
melting point: 215 to 217 °C
Ki (human H3 receptor; [3]): < 200 nM

O=c1ccc(-c2ccc3c(c2)COC2(CCN(C4CCC4)CC2)O3)c[nH]1 [Example 168]
Ki [1, 2]: < 200 nM
melting point: 145 to 147 °C
Ki (human H3 receptor; [3]): < 200 nM

O=C(c1ccc(-c2ccc3c(c2)CCC2(CCN(C4CCC4)CC2)O3)cc1)N1CCC[C@H](O)C1 [Example 212]
Ki [1, 2]: < 200 nM
melting point: 82 to 83.3 °C
Ki (human H3 receptor; [3]): < 200 nM

O=c1[nH]cccc1-c1ccc2c(c1)COC1(CCN(C3CCC3)CC1)O2 [Example 488]
Ki ([1]; read-out: Rat H3 kI): < 200 nM
melting point: 167 to 169 °C
Ki (human H3 receptor; read-out: Human H3 Ki): < 200 nM

c1ccc(N2CCN(c3ccc4c(c3)CCC3(CCN(C5CCC5)CC3)O4)CC2)cc1 [Example 363]
Ki [1, 4]: < 200 nM
melting point: 173 to 175 °C
Ki (human H3 receptor; [5]): < 200 nM

CCN(CC)C(=O)N1CCN(c2ccc3c(c2)CCC2(CCN(C4CCC4)CC2)O3)CC1 [Example 394]
Ki [1, 4]: < 200 nM
melting point: 272 to 274 °C
Ki (human H3 receptor; [5]): < 200 nM

CCc1nnc(CCc2ccc3c(c2)COC2(CCN(C4CCC4)CC2)O3)o1 [Example 694]
Ki [1, 6]: < 200 nM
melting point: 98 to 100 °C
Ki (human H3 receptor; [7]): < 200 nM

Cc1cscc1-c1ccc2c(c1)COC1(CCN(C3CCC3)CC1)O2 [Example 785]
Ki [1, 6]: < 200 nM
melting point: 91 to 93 °C
Ki (human H3 receptor; [7]): < 200 nM

O=C(N1CCCC1)N1CCN(c2ccc3c(c2)CCC2(CCN(C4CCC4)CC2)O3)CC1 [Example 388]
Ki [1, 4]: < 200 nM
melting point: 165 to 167 °C
Ki (human H3 receptor; [5]): < 200 nM

OC1(c2ccc3c(c2)COC2(CCN(C4CCC4)CC2)O3)CCCC1 [Example 509]
Ki ([1]; read-out: Rat H3 kI): < 200 nM
melting point: 149 to 151 °C
Ki (human H3 receptor; read-out: Human H3 Ki): < 200 nM

CC(C)n1cc(Cl)c(-c2ccc3c(c2)COC2(CCN(C4CCC4)CC2)O3)cc1=O [Example 779]
Ki [1, 6]: < 200 nM
melting point: 179 to 181 °C
Ki (human H3 receptor; [7]): < 200 nM

c1cnc(Nc2ccc3c(c2)COC2(CCN(C4CCC4)CC2)O3)cn1 [Example 136]
Ki [1, 2]: < 200 nM
melting point: 57 to 61 °C
Ki (human H3 receptor; [3]): < 200 nM

COc1ccc(-c2ccc3c(c2)COC2(CCN(CC4CCOCC4)CC2)O3)cn1 [Example 716]
Ki [1, 6]: > 1000 nM
melting point: 151 to 153 °C
Ki (human H3 receptor; [7]): > 1000 nM

c1csc(-c2ccc3c(c2)COC2(CCN(C4CCC4)CC2)O3)n1 [Example 143]
Ki [1, 2]: < 200 nM
melting point: 181 to 183 °C
Ki (human H3 receptor; [3]): < 200 nM

O=C(C1CC1)N1CCC(Oc2ccc3c(c2)CCC2(CCN(C4CCC4)CC2)O3)CC1 [Example 435]
Ki [1, 4]: < 200 nM
melting point: 243 to 245 °C
Ki (human H3 receptor; [5]): < 200 nM

O=C(N[C@@H]1CCOC1)c1ccc(-c2ccc3c(c2)COC2(CCN(C4CCC4)CC2)O3)cc1 [Example 346]
Ki [1, 2]: < 200 nM
melting point: 198 to 199 °C
Ki (human H3 receptor; [3]): < 200 nM

CC(C)(O)CNC(=O)c1ccc(-c2ccc3c(c2)COC2(CCN(C4CCC4)CC2)O3)cc1 [Example 155]
Ki [1, 2]: < 200 nM
melting point: 156 to 158 °C
Ki (human H3 receptor; [3]): < 200 nM

Cn1cc(C(=O)Nc2ccc3c(c2)COC2(CCN(C4CCC4)CC2)O3)cn1 [Example 227]
Ki [1, 2]: 200 to 1000 nM
melting point: 227 to 228 °C
Ki (human H3 receptor; [3]): < 200 nM

OC1(c2ccc3c(c2)COC2(CCN(C4CCC4)CC2)O3)CCOCC1 [Example 477]
Ki ([1]; read-out: Rat H3 kI): < 200 nM
melting point: 157 to 159 °C
Ki (human H3 receptor; read-out: Human H3 Ki): < 200 nM

c1csc(N2CCN(c3ccc4c(c3)CCC3(CCN(C5CCC5)CC3)O4)CC2)n1 [Example 374]
Ki [1, 4]: < 200 nM
melting point: 182 to 184 °C
Ki (human H3 receptor; [5]): < 200 nM

Cc1cc(C(=O)Nc2ccc3c(c2)COC2(CCN(C4CCC4)CC2)O3)cc(Cl)n1 [Example 196]
Ki [1, 2]: < 200 nM
melting point: 179 to 180 °C
Ki (human H3 receptor; [3]): < 200 nM

O=S(=O)(c1ccccc1)C1CCN(c2ccc3c(c2)COC2(CCN(C4CCC4)CC2)O3)CC1 [Example 583]
Ki [1, 6]: < 200 nM
melting point: 78.4 to 80.2 °C
Ki (human H3 receptor; [7]): < 200 nM

CCSc1cc(-c2ccc3c(c2)COC2(CCN(C4CCC4)CC2)O3)c[nH]c1=O [Example 728]
Ki [1, 6]: < 200 nM
melting point: 241 to 243 °C
Ki (human H3 receptor; [7]): < 200 nM

O=C(NC1CCOCC1)c1ccc(COc2ccc3c(c2)CCC2(CCN(C4CCC4)CC2)O3)cc1 [Example 647]
Ki [1, 6]: < 200 nM
melting point: 174 to 176 °C
Ki (human H3 receptor; [7]): < 200 nM

O=C(c1ccc(-c2ccc3c(c2)CCC2(CCN(C4CCC4)CC2)O3)cc1)N1CC[C@H](O)C1 [Example 182]
Ki [1, 2]: < 200 nM
melting point: 193 to 195 °C
Ki (human H3 receptor; [3]): < 200 nM

O=C(Nc1ccc(F)cc1)Nc1ccc2c(c1)COC1(CCN(C3CCC3)CC1)O2 [Example 248]
Ki [1, 2]: < 200 nM
melting point: 237 to 238 °C
Ki (human H3 receptor; [3]): < 200 nM

O=S(=O)(C1CC1)N1CCC(Oc2ccc3c(c2)CCC2(CCN(C4CCC4)CC2)O3)CC1 [Example 437]
Ki [1, 4]: < 200 nM
melting point: 233 to 235 °C
Ki (human H3 receptor; [5]): < 200 nM

O=C(Nc1ccc2c(c1)COC1(CCN(C3CCC3)CC1)O2)c1cccnc1 [Example 149]
Ki [1, 2]: < 200 nM
melting point: 215 to 217 °C
Ki (human H3 receptor; [3]): < 200 nM

Cc1cc(=O)[nH]c(C)c1-c1ccc2c(c1)COC1(CCN(C3CCC3)CC1)O2 [Example 806]
Ki [1, 6]: < 200 nM
melting point: 247 to 249 °C
Ki (human H3 receptor; [7]): < 200 nM

Cn1cc(-c2ccc3c(c2)COC2(CCN(C4CCC4)CC2)O3)c2ccccc2c1=O [Example 786]
Ki [1, 6]: < 200 nM
melting point: 207 to 209 °C
Ki (human H3 receptor; [7]): < 200 nM

CNC(=O)c1cc(-c2ccc3c(c2)CCC2(CCN(C4CCC4)C2)O3)ccc1Cl (stereo not drawn) [Example 581]
Ki [1, 6]: 200 to 1000 nM
melting point: 100 to 103 °C
Ki (human H3 receptor; [7]): < 200 nM

CN(C)C(=O)c1ccc(Oc2ccc3c(c2)CCC2(CCN(C4CCC4)CC2)O3)nc1 [Example 407]
Ki [1, 4]: 200 to 1000 nM
melting point: 267 to 269 °C
Ki (human H3 receptor; [5]): < 200 nM

COc1ccc(-c2ccc3c(c2)COC2(CCN(C4CC(C(=O)O)C4)CC2)O3)cn1 (stereo not drawn) [Example 734]
Ki [1, 6]: > 1000 nM
melting point: 260 to 262 °C
Ki (human H3 receptor; [7]): > 1000 nM

O=C(OCc1ccccc1)N1CC=C(c2ccc3c(c2)CCC2(CCN(C4CCC4)CC2)O3)CC1 [Example 447]
Ki ([1]; read-out: Rat H3 kI): < 200 nM
melting point: 237 to 239 °C
Ki (human H3 receptor; read-out: Human H3 Ki): < 200 nM

CN(C)C(=O)c1cc(COc2ccc3c(c2)CCC2(CCN(C4CCC4)CC2)O3)ccn1 [Example 623]
Ki [1, 6]: < 200 nM
melting point: 165 to 167 °C
Ki (human H3 receptor; [7]): < 200 nM

OC1CC2(CCN(C3CCC3)CC2)Oc2ccc(OCc3ccccc3)cc21 (stereo not drawn) [Example 190]
Ki [1, 2]: 200 to 1000 nM
melting point: 69 to 71 °C
Ki (human H3 receptor; [3]): < 200 nM

CNC(=O)c1ccc(Nc2ccc3c(c2)COC2(CCN(C4CCC4)CC2)O3)cc1 [Example 285]
Ki [1, 2]: < 200 nM
melting point: 206 to 208 °C
Ki (human H3 receptor; [3]): < 200 nM

CC(C)C(=O)NC1CCN(c2ccc3c(c2)CCC2(CCN(C4CCC4)CC2)O3)CC1 [Example 571]
Ki [1, 6]: < 200 nM
melting point: 199.3 to 201.2 °C
Ki (human H3 receptor; [7]): < 200 nM

O=C1CCN(c2ccc3c(c2)CCC2(CCN(C4CCC4)CC2)O3)CC1 [Example 399]
Ki [1, 4]: < 200 nM
melting point: > 247 °C (dec.)
Ki (human H3 receptor; [5]): < 200 nM

Cc1noc(C2CCN(c3ccc4c(c3)COC3(CCN(C5CCC5)CC3)O4)CC2)n1 [Example 628]
Ki [1, 6]: < 200 nM
melting point: 125 to 126.2 °C
Ki (human H3 receptor; [7]): < 200 nM

c1cc(Oc2ccc3c(c2)CCC2(CCN(C4CCC4)CC2)O3)ccn1 [Example 273]
Ki [1, 2]: < 200 nM
melting point: 266 to 268 °C
Ki (human H3 receptor; [3]): < 200 nM

O=C(c1ccc(-c2ccc3c(c2)COC2(CCN(C4CCC4)CC2)O3)cn1)N1CC[C@@H](O)C1 [Example 173]
Ki [1, 2]: < 200 nM
melting point: 100 to 101 °C
Ki (human H3 receptor; [3]): < 200 nM
